Test results: patent US12570603B2, “FABP4/5 inhibitors, methods of use and methods of making” (Novius Therapeutics, LLC, priority 2021, dated 2026)

Columns and labels:
[1] = system: PPARγ; assay: Transactivation assay, PPRE luciferase reporter in COS-7 cells; format: cell-based; settings: tested against rosiglitazone, FIG. 4
Method: (§1) COS-7 were cultured in 6-well plates and co-transfected with either a luciferase reporter driven by 3 copies of a PPRE and expression vector for either PPARδ, PPARα or PPARγ together with a vector harboring cDNA for β-galactosidase, serving as a transfection control. To test whether FABP4 or FABP5 mediate activation of their cognate receptors PPARγ and PPARδ, respectively, cells were also co-transfected with a plasmid harboring sequence of either FABP4 or FABP5. 18 h post-transfection, cells were placed in a serum-free medium and treated with agonist/compound. 18 h. later, cells were lysed, luciferase activity was assayed (Promega, WI, USA) and corrected for transfection efficiency by the activity of β-galactosidase.
(§2) COS-7 were cultured in 6-well plates and co-transfected with either a luciferase reporter driven by 3 copies of a PPRE and expression vector for either PPARδ, PPARα or PPARγ together with a vector harboring cDNA for β-galactosidase, serving as a transfection control. 18 h. post-transfection, cells were placed in a serum-free medium and treated with agonist/compound. 18 h. later, cells were lysed, luciferase activity was assayed (Promega, WI, USA) and corrected for transfection efficiency by the activity of β-galactosidase.

[2] = system: PPARδ; assay: as above; format: cell-based; settings: compared to GW0742, FIG. 5
Method: as §1, §2

[3] = system: FABP4 together with PPARγ; assay: Transcriptional activation assay in cells overexpressing FABP4, with PPARγ activator rosiglitazone; format: cell-based; settings: FIG. 7
Method: as §1

[4] = system: FABP5 together with PPARδ; assay: Transcriptional activation assay in cells overexpressing FABP5, with PPARδ activator GW0742; format: cell-based; settings: together with GW0742, FIG. 8
Method: as §1

[5] = system: PPARδ targets PDPK1 and CD47 in TNBC cells MB-231; assay: Real-time PCR of PPARδ targets; format: cell-based; settings: MB-231, 1 μM, 6 hours
Method: (§3) Cells were treated with a compound for 6 h. then lysed and RNA was extracted using Trizol, according to the manufacturer's instructions. cDNA was generated using GeneAmp RNA PCR (Applied Biosystems). qPCR was carried out using TaqMan chemistry and Assays-on-Demand probes (Applied Biosystems). 18s (4352930) rRNA was used for normalization. Relative expression was calculated as 2^−ΔΔCT.

[6] = system: PPARδ targets PDPK1 and CD47 in TNBC cells MB-157; assay: Real-time PCR of PPARδ targets; format: cell-based, human; settings: MB-157, 1 μM, 6 hours
Method: as §3

[7] = system: MB-231 shC and shF5 cells; assay: Proliferation assay, MB-231 lines expressing control shRNA (shC) or FABP5 shRNA (shF5); format: cell-based; settings: MB-231 shC vs shF5, different concentrations
Method: (§4) 2000 cells were plated in each well of 96-well plate. The next day cells were treated with compounds and incubated in Incucyte for 4 days. Images taken every 4 hours for the duration of the time were analyzed to calculate percentage of confluency in response to the treatments. Growth inhibition was calculated as 1−(percentage of viable cells out of untreated cells).

[8] = system: TNBC lines and MCF7; assay: Proliferation assay in multiple TNBC lines and MCF7, MB-231 shF5 as control; format: cell-based
Method: as §4

[9] = system: BT-549 cells; assay: Proliferation assay, combination with chemotherapy; format: cell-based, human; settings: B4 1 μM with doxorubicin 0 to 100 nM
Method: as §4

[10] = system: LX-2 hepatic stellate cells; assay: Lipid uptake assay, Oil Red O staining of lipid droplets; format: cell-based, human
Method: 1) LX-2: Human LX-2 hepatic stellate cells were treated with compound for 2 days in the presence or absence of 2% lipid mixture (Sigma, USA) in the growth media. Cells were stained with Oil Red O and lipid content was quantified using ImageJ.

[11] = system: LX-2 cells; assay: Hepatic stellate cells activation assay (αSMA after TGF-β); format: cell-based, human; settings: B4 0.1 to 5 μM versus untreated cells
Method: LX-2 cells were treated with compound for 6 h. then stimulated with TGF-β ([…]) for additional 24 h. Cells were fixed with 4% paraformaldehyde and immununostained with the fibrosis marker αSMA. Nuclei were stained with Dapi. Images and quantification of positive cells was done using Cytation5 (Agilent).

[12] = system: HepG2 cells; assay: Lipid uptake assay, oleic acid, Nile Red (steatosis model); format: cell-based, human; settings: OA 1 mM
Method: 2) Hepg2 cells: 5000 cells were plated in 96-well plate. The next day cells were treated with tested compounds for 4 hours and then treated with 1 mM oleic acid for additional 24 hours. Cells were then stained with Nile Red and Dapi and lipid content was quantified using Cytation5 (Agilent).
2) Hepg2 cells: 5000 cells were plated in 96-well plate. The next day cells were treated with tested compounds for 4 hours and then treated with 1 mM oleic acid for additional 24 hours. Cells were then stained with Nile Red and Dapi and lipid content was quantified.

[13] = system: 3T3-L1 adipocytes; assay: Lipid uptake during adipocyte maturation, Nile Red; format: cell-based, mouse; settings: B4 from day 6, stained day 12
Method: (§5) 3) 3T3-L1: Mouse 3T3-L1 cells were differentiated in culture according to ATCC protocol to become mature adipocytes. At day 6 of the differentiation, compound treatment started. Cells were stained by Nile Red on day and color intensity in each cell was measured relative to Dapi staining. Lipolysis was measured by measuring glycerol levels using lipolysis kit (Cayman, USA) according to the manufacturer manual.
as §5, with “1)” for “3)”

[14] = system: 3T3-L1 adipocytes; assay: Lipolysis (glycerol release) in mature adipocytes; format: cell-based, mouse
Method: as §5
as §5, with “1)” for “3)”

[15] = system: MB-231 tumors; assay: TNBC xenograft experiment; format: in vivo; settings: NSG mice, B4 20 or 40 mg/kg IP 5 times a week, after 14 days
Method: Eight-week-old NSG […] females were injected subcutaneously into the right flank with 5×10^6 MB-231 cells 1:1 with matrigel. Treatments started the day after cells injections 5 days a week. Mice were treated with either vehicle (5% DMSO, 15%-HPCBD (PH 9.0) in water), 20 mg/kg, or 40 mg/kg B4 dissolved in vehicle. Tumor size was assessed twice per week using a digital caliper. Tumor volumes were determined by measuring the length (l) and the width (w) of the tumor and calculating the volume (V=lw^2/2). Mice were scarified 14 days after injection. Statistical significance between the control and treated mice in both experiments was evaluated using a Student's t test. Mouse experiments were conducted after approval by the institutional animal care and use committee at Case Western Reserve University.
TNBC xenograft model was used to test the efficacy of B4 in suppressing growth on tumors in vivo. 5×10^6 MB-231 cells were subcutaneously injected into the right flank of NSG mice. B4 (20, or 40 mg/kg) or a vehicle were IP injected 5 times a week and tumor growth was monitored.

CC(C)Oc1cc(NC(=O)CSCC(=O)O)c(Cl)cc1Cl [Compound B4, 2-((2-((2,4-dichloro-5-isopropoxyphenyl)amino)-2-oxoethyl)thio)acetic acid]
activation of transcription by PPARγ [1]: did not activate transcription | activation of transcription by PPARδ [2]: did not active transcription | inhibition of PPARγ activity in cells overexpressing FABP4 [3]: inhibit activity of the nuclear receptors only in cells that express the binding proteins | inhibition of PPARδ activity in cells overexpressing FABP5 [4]: inhibit activity of the nuclear receptors only in cells that express the binding proteins | levels of endogenous PPARδ targets PDPK1 and CD47 [5]: significantly lower | levels of endogenous PPARδ targets PDPK1 and CD47 [6]: significantly lower | TNBC cell growth, shC versus shF5 [7]: suppressed TNBC cell growth only in the cells highly expressing FABP5 | growth inhibition of TNBC lines by FABP5 level [8]: inhibited growth of only TNBC lines expressing high FABP5 levels | sensitization to chemotherapy [9]: sensitized to chemotherapy | amount of lipid droplets (Oil Red O) ([10]; B4 alone, activated LX-2 cells): increased the amount of LD in the cells | lipid droplet size ([10]; co-treatment with 2% lipid mix and B4): increases the LD size even more | levels of α-SMA following activation by TGF-β [11]: significantly lower than in untreated cells | uptake of lipids into hepatocytes (Nile Red) ([12]; B4 0.1 to 5 μM): prevented uptake of lipids into hepatocytes | size of the lipid droplets ([12]; B4 treated cells): significantly smaller droplets | lipid droplets in adipocytes (Nile Red) [13]: fewer LD within the cells | basal lipolysis (glycerol release) ([14]; basal): inhibited basal lipolysis | isoproterenol-stimulated lipolysis (glycerol release) ([14]; isoproterenol-stimulated, relative to basal): more potent | growth of 231 tumors [15]: almost completely abolished growth
